Measurements taken from PMC7529893, “Structural basis for substrate recognition and chemical inhibition of oncogenic MAGE ubiquitin ligases” (Nature Communications, 2020).

Target: T1, MAGE-A11:PCF11 interaction (GST-MAGE-A11 and FAM-PCF11_4) (Homo sapiens, UniProt P43364)
T1 construct: GST-MAGE-A11 MHD (human MAGE-A11 MHD amino acid 218-429); made in house; host or cells: E. coli BL21(DE3)
T1 sequence (P43364 218-429): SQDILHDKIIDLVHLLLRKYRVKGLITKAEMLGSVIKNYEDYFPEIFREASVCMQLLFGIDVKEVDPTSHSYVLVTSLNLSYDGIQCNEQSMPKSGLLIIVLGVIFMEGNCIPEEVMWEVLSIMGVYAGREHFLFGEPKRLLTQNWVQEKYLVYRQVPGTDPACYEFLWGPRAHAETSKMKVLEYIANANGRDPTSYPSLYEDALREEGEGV
Test: TR-FRET primary / single point screen at 15 µM
Format: binding
Summary of the method: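 Single-point screen at 15 µM final compound in 50 mM Tris pH 7.5, 20 mM MgCl2, 0.1 mg/ml BSA, 1 mM DTT, with 200 nM FAM-PCF11_4, 5 nM Tb-anti-GST and 5 nM GST-MAGE-A11. After 90 min at room temperature, the 520/490 nm TR-FRET ratio (340 nm excitation) gave %Inhibition against no-MAGE-A11 and DMSO controls.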

[1] = single point TR-FRET screening of 797 quinoline compounds against MAGE-A11:PCF11
[2] = single point TR-FRET screening of quinoline compounds against MAGE-A11:PCF11, 15 µM

Row | percent inhibition (TR-FRET) [1] | percent inhibition (TR-FRET) [2] | SMILES
1 | -177.507 | – | CCCN(CCCNc1c2ccc(Cl)cc2nc2ccc(OC)cc12)Cc1ccc(OC)c(F)c1 [SJ000522963]
2 | -162.244 | – | CCCN(CCCNc1c2ccc(Cl)cc2nc2ccc(OC)cc12)Cc1cn(C)c2ccccc12 [SJ000522964]
3 | – | -81.2358 | CCCN(CCCNc1c2ccc(Cl)cc2nc2ccc(OC)cc12)Cc1cc(OC)ccc1F [SJ000522965]
4 | – | -82.146 | CCCN(CCCNc1c2ccc(Cl)cc2nc2ccc(OC)cc12)Cc1nc(C)cs1 [SJ000522966]
5 | – | 14.4758 | CCCN(CCCNc1c2ccc(Cl)cc2nc2ccc(OC)cc12)Cc1cccc(OC(F)(F)F)c1 [SJ000522967]
6 | – | 23.0877 | CCCN(CCCNc1c2ccc(Cl)cc2nc2ccc(OC)cc12)Cc1c(F)cccc1C(F)(F)F [SJ000522968]
7 | – | -68.773 | CCCN(CCCNc1c2ccc(Cl)cc2nc2ccc(OC)cc12)Cc1nc2ccccc2s1 [SJ000522969]
8 | – | -51.6891 | CCCN(CCCNc1c2ccc(Cl)cc2nc2ccc(OC)cc12)Cc1csc2ccccc12 [SJ000522970]
9 | -286.942 | – | CCCCN(CCC)CCCNc1c2ccc(Cl)cc2nc2ccc(OC)cc12 [SJ000522971]
10 | -105.076 | – | CCCN(CCCNc1c2ccc(Cl)cc2nc2ccc(OC)cc12)Cc1ccc(CC)cc1 [SJ000522972]
11 | -159.863 | – | CCCN(CCCNc1c2ccc(Cl)cc2nc2ccc(OC)cc12)Cc1nccn1C [SJ000522973]
12 | – | 16.3588 | CCCN(CCCNc1c2ccc(Cl)cc2nc2ccc(OC)cc12)Cc1ccc(Cl)c(C(F)(F)F)c1 [SJ000522974]
13 | – | -89.0775 | CCCN(CCCNc1c2ccc(Cl)cc2nc2ccc(OC)cc12)Cc1cncc(Br)c1 [SJ000522975]
14 | -127.026 | – | CCCN(CCCNc1c2ccc(Cl)cc2nc2ccc(OC)cc12)Cc1scnc1C [SJ000522976]
15 | – | 0.2567 | CCCN(CCCNc1c2ccc(Cl)cc2nc2ccc(OC)cc12)Cc1cccnc1Br [SJ000522977]
16 | -166.235 | – | CCCN(CCCNc1c2ccc(Cl)cc2nc2ccc(OC)cc12)Cc1c[nH]c2ccccc12 [SJ000522978]
17 | -107.991 | – | CCCN(CCCNc1c2ccc(Cl)cc2nc2ccc(OC)cc12)Cc1cccc2c1OCO2 [SJ000522979]
18 | -276.65 | – | CCCN(CCCNc1c2ccc(Cl)cc2nc2ccc(OC)cc12)Cc1cnn(C)c1 [SJ000522980]
19 | -212.396 | – | CCCN(CCCNc1c2ccc(Cl)cc2nc2ccc(OC)cc12)CCOCc1ccccc1 [SJ000522981]

Second part, the molecule before the results:

Row | SMILES | percent inhibition (TR-FRET) [1] | percent inhibition (TR-FRET) [2]
20 | CN(C)c1ccc(CN(CCCCNc2ccnc3cc(Cl)ccc23)Cc2ccccc2)cc1 [SJ000522727] | 21.522 | –
21 | COc1ccc(CN(CCCCNc2ccnc3cc(Cl)ccc23)Cc2ccccc2)cc1OC [SJ000522728] | 0.05797 | –
22 | Clc1ccc2c(NCCCCN(CCCc3ccccc3)Cc3ccccc3)ccnc2c1 [SJ000522729] | 27.8155 | –
23 | CCCN(CCCNc1c2ccc(Cl)cc2nc2ccc(OC)cc12)CCCSC [SJ000522730] | – | 0.7867
24 | CCCN(CCCNc1c2ccc(Cl)cc2nc2ccc(OC)cc12)CCC(C)c1ccccc1 (stereo not drawn) [SJ000522731] | -120.975 | –
25 | CCCN(CCCNc1c2ccc(Cl)cc2nc2ccc(OC)cc12)Cc1ccc2[nH]ccc2c1 [SJ000522732] | – | 39.4714
26 | CCCN(CCCNc1c2ccc(Cl)cc2nc2ccc(OC)cc12)Cc1c(F)cccc1OC [SJ000522733] | -187.09 | –
27 | CCCN(CCCNc1c2ccc(Cl)cc2nc2ccc(OC)cc12)Cc1c(F)c(F)c(F)c(F)c1F [SJ000522734] | – | -2.258
28 | CCCN(CCCNc1c2ccc(Cl)cc2nc2ccc(OC)cc12)Cc1ccc([N+](=O)[O-])s1 [SJ000522735] | -154.43 | –
29 | CCCN(CCCNc1c2ccc(Cl)cc2nc2ccc(OC)cc12)Cc1cn(C(C)=O)c2ccccc12 [SJ000522736] | -192.351 | –
30 | CCCN(CCCNc1c2ccc(Cl)cc2nc2ccc(OC)cc12)Cc1cc2ccccc2nc1Cl [SJ000522737] | – | -83.7446
31 | CCCN(CCCNc1c2ccc(Cl)cc2nc2ccc(OC)cc12)Cc1ccc(Cl)c([N+](=O)[O-])c1 [SJ000522738] | – | -71.0252
32 | CCCN(CCCNc1c2ccc(Cl)cc2nc2ccc(OC)cc12)Cc1cccc(C#N)c1 [SJ000522739] | – | -94.5429
33 | CCCN(CCCNc1c2ccc(Cl)cc2nc2ccc(OC)cc12)Cc1ccc(-c2ccccc2)cc1 [SJ000522740] | – | -74.0063
34 | CN(C)c1ccc(CN(CCCNc2ccnc3cc(Cl)ccc23)Cc2ccccc2)cc1 [SJ000522741] | – | 14.7648
35 | COc1ccc(CN(CCCNc2ccnc3cc(Cl)ccc23)Cc2ccccc2)cc1OC [SJ000522742] | – | -0.5383
36 | CCCN(CCCNc1ccnc2cc(Cl)ccc12)Cc1ccccn1 [SJ000522743] | – | 1.3128
37 | CCCN(CCCNc1ccnc2cc(Cl)ccc12)Cc1ccsc1 [SJ000522744] | – | 7.824
38 | CCCN(CCCNc1ccnc2cc(Cl)ccc12)Cc1ccccc1C(F)(F)F [SJ000522745] | – | -38.0341
39 | CCCN(CCCNc1ccnc2cc(Cl)ccc12)Cc1ccc2[nH]ccc2c1 [SJ000522746] | – | 96.845
40 | CCCN(CCCNc1ccnc2cc(Cl)ccc12)Cc1ccccc1N [SJ000522747] | – | 15.4273
41 | CCCN(CCCNc1ccnc2cc(Cl)ccc12)Cc1c(F)c(F)c(F)c(F)c1F [SJ000522748] | – | 19.8658

Row | SMILES | percent inhibition (TR-FRET) [1] | percent inhibition (TR-FRET) [2]
42 | CCCN(CCCNc1ccnc2cc(Cl)ccc12)Cc1c(C)cc(C)cc1C [SJ000522749] | – | 35.4339
43 | CCCN(CCCNc1ccnc2cc(Cl)ccc12)Cc1ccc([N+](=O)[O-])s1 [SJ000522750] | – | 9.134
44 | CCCN(CCCNc1ccnc2cc(Cl)ccc12)CC1CCCCC1 [SJ000522751] | – | 15.626
45 | CCCN(CCCNc1ccnc2cc(Cl)ccc12)CC(CC)CC [SJ000522752] | – | 14.1686
46 | CCCN(CCCNc1ccnc2cc(Cl)ccc12)Cc1ccc2c(c1)OCO2 [SJ000522753] | – | 18.7467
47 | CCCCCN(CCC)CCCNc1ccnc2cc(Cl)ccc12 [SJ000522754] | – | 16.2885
48 | CCCN(CCCNc1ccnc2cc(Cl)ccc12)Cc1c(C)n(C)n(-c2ccccc2)c1=O [SJ000522755] | – | 13.6386
49 | CCCN(CCCNc1ccnc2cc(Cl)ccc12)Cc1ccc(OC)cc1 [SJ000522756] | – | 19.1371
50 | CCCN(CCCNc1ccnc2cc(Cl)ccc12)Cc1ccccc1F [SJ000522757] | – | 21.9858
51 | CCCN(CCCNc1ccnc2cc(Cl)ccc12)Cc1cccc(F)c1 [SJ000522758] | – | 27.418
52 | CCCN(CCCNc1ccnc2cc(Cl)ccc12)Cc1ccc(F)cc1 [SJ000522759] | – | 20.7933
53 | CCCN(CCCNc1ccnc2cc(Cl)ccc12)Cc1cc2ccccc2nc1Cl [SJ000522760] | – | 12.7954
54 | CCCN(CCCNc1ccnc2cc(Cl)ccc12)Cc1ccc(Cl)c([N+](=O)[O-])c1 [SJ000522761] | – | 16.951
55 | CCCN(CCCNc1ccnc2cc(Cl)ccc12)Cc1c2ccccc2cc2ccccc12 [SJ000522762] | – | 15.4935
56 | CCCN(CCCNc1ccnc2cc(Cl)ccc12)Cc1cccc(C#N)c1 [SJ000522763] | – | 12.9099
57 | COc1ccc2nc3cc(Cl)ccc3c(NCCCNCc3cccc(C)c3)c2c1 [SJ000522956] | – | -7.0891
58 | COC(=O)c1ccc(CNCCCNc2c3ccc(Cl)cc3nc3ccc(OC)cc23)cc1 [SJ000522957] | -133.032 | –
59 | COc1ccc2nc3cc(Cl)ccc3c(NCCCNCc3ccc(Cl)cc3Cl)c2c1 [SJ000522958] | -97.8295 | –
60 | COc1ccc2nc3cc(Cl)ccc3c(NCCCNCc3ccc(-c4cccc(Cl)c4)o3)c2c1 [SJ000522959] | – | -47.4182
61 | COc1ccc2nc3cc(Cl)ccc3c(NCCCNCc3c(Cl)ccc(Cl)c3Cl)c2c1 [SJ000522960] | – | -81.4922
62 | CCCN(CCCNc1c2ccc(Cl)cc2nc2ccc(OC)cc12)Cc1ccccc1OC(F)(F)F [SJ000522961] | – | 22.6913
63 | CCCN(CCCNc1c2ccc(Cl)cc2nc2ccc(OC)cc12)Cc1cc2ccccc2s1 [SJ000522962] | – | -21.5824
